Test results reported in patent US8501911B2, “Methods of reducing inflammation and mucus hypersecretion” (Biomarck Pharmaceuticals, Ltd, priority 1999, dated 2013).
Where “and” joins values, the source holds several entries; their conditions need not be identical. Identical values can stand only once. Residues, ends and D or L forms follow the SMILES beside them. *: point of attachment. Myristoyl = CCCCCCCCCCCCCC(=O)*

Tests used:
human neutrophils = test: Human neutrophil chemotactic migration assay; assay type: cell-based; settings: test peptide 50 μM; for Neutrophil Migration (% Inhibition), LTB4: LTB4 100 nM; for Neutrophil Migration (% Inhibition), LTB4 / Neutrophil Migration (% Inhibition), fMLP: 0 = inactive; for Neutrophil Migration (% Inhibition), PAF: PAF 100 nM; for Neutrophil Migration (% Inhibition), fMLP: fMLP 100 nM
Protocol: Human neutrophils were isolated from heparinized whole blood collected from healthy adult donors via cephalic venipuncture by a slightly modified method as described by Akasaki et al., 1999 (Akasaki T, Koga H, and Sumimoto H., Phosphoinositide 3-kinase-dependent and -independent activation of the small GTPase Rac2 in human neutrophils, J. Biol. Chem. 274:18055-18059, 1999). The blood was mixed with dextran (final concentration 1.4% dextran) and then allowed to settle for 60 minutes, after which time the leukocyte rich plasma was collected and layered onto 5 mL of Ficoll-Paque PLUS in 15 ml, conical tubes. The plasma was centrifuged at 1800 rpm for 20 minutes at room temperature. The residual erythrocytes were lysed utilizing a hypotonic saline and the remaining neutrophils were re-suspended in Hank's balanced salt solution containing 20 mM HEPES and 8.9 mM sodium bicarbonate without calcium or magnesium (HBSS), yielding neutrophils that were greater than 98% pure and greater than 99% viable.
Neutrophil migration assay was performed according to the method described by Frevert C W, Wong V A, Goodman R B, Goodwin R, and Martin T R., Rapid fluorescence-based measurement of neutrophil migration in vitro, J. Immunol. Methods, 213:41-52, 1998. Human neutrophils were labeled with the fluorescent dye calcein for 30 minutes at room temperature. Cells were then washed and resuspended in a migration buffer containing HBSS with 2% FCS. Cells were treated with buffer alone or with the indicated test peptide (50 μM) for 30 minutes at 37° C. Treated cells (1×10^4 cells) were then placed on the upper side of a ChemoTx® chemotaxis plate (Neuroprobe, Gaithersburg, Md.) membrane (2 μm pore size). Lower wells of the plate were filled with migration buffer alone or with buffer containing fMLP (100 nM), LTB4 (100 nM), or PAF (100 nM). Wells containing 1×10^4 labeled cells were used as standards to calculate migration percentage. Cells were allowed to migrate for 1 hour at 37° C. After incubation, cells on the top of the filter were washed away with PBS. Followed by this, 0.5 mM EDTA was added to the top of the filter for 5 min to detach adherent cells and the membrane was again washed. The plate was then centrifuged at 1000 rpm for 1 min. The filter was removed and the fluorescence was measured in the lower wells (485 nm excitation, 530 nm emission wavelength) using an fMax fluorescence plate reader (Molecular Devices, Sunnyvale, Calif.). Percent migration was determined by dividing the fluorescence of each well by the fluorescence of the standard wells containing 1×10^4 labeled cells. A lesser number of migrated neutrophils in the bottom compartment is indicative of the test peptide being an inhibitor of inflammation.

NHBE cells = test: Mucin secretion from NHBE cells exposed to kinase activators/reagents alone (ELISA); assay type: cell-based, human; settings: for Mucin secretion as percent of control: 15 min
Protocol: To determine the potential role of PKC and/or PKG in the mucin secretory process, NHBE cells were exposed to the following two specific protein kinase activators: the phorbol ester, phorbol 12-myristate 13-acetate (PMA), for activation of PKC, and the nonhydrolyzable cGMP analogue, 8-Br-cGMP, for activation of PKG.
NHBE Cell Culture—Expansion, cryopreservation, and culture of NHBE cells in the air/liquid interface were performed as described previously. See, Krunkosky et al. Briefly, NHBE cells (Clonetics, San Diego, Calif.) were seeded in vented T75 tissue culture flasks (500 cells/cm^2) and cultured until cells reached 75-80% confluence. Cells were then dissociated by trypsin/EDTA and frozen as passage-2. Air/liquid interface culture was initiated by seeding passage-2 cells (2×10^4 cells/cm^2) in […]® clear culture inserts (Costar, Cambridge, Mass.) that were thinly coated with rat tail collagen, type 1 (Collaborative Biomedical, Bedford, Mass.). Cells were cultured submerged in medium in a humidified 95% air, 5% CO2 environment for 5-7 days until nearly confluent. At that time, the air/liquid interface was created by removing the apical medium and feeding cells basalaterally. Medium was renewed daily thereafter. Cells were cultured for an additional 14 days to allow for full differentiation.
Measurement of Mucin Secretion by ELISA—Before collection of “base line” and “test” mucin samples, the accumulated mucus at the apical surface of the cells was removed by washing with phosphate-buffered saline, pH 7.2. To collect the base-line secretion, cells were incubated with medium alone, and secreted mucin in the apical medium was collected and reserved. Cells were rested for 24 h and then exposed to medium containing the selected stimulatory and/or inhibitory reagents (or appropriate controls), after which secreted mucin was collected and reserved as the test sample. Incubation times for the base line and the test were the same but varied depending on the test reagent utilized. Both base line and test secretions were analyzed by ELISA using an antibody capture method as known in the art. See, e.g., Harlow et al., Antibodies: A Laboratory Manual, pp. 570-573, Cold Spring Harbor Laboratory, Cold Spring Harbor, N.Y. (1988). The primary antibody for this assay was 17Q2 (Babco, Richmond, Calif.), a monoclonal antibody that reacts specifically with a carbohydrate epitope on human airway mucins. […] Wright et al., Am. J. Physiol. 271, L854-L861 (1996). Levels of mucin secretion were reported as percentage of the medium control.
Mucus secreted from the airway epithelial cells in vitro after stimulation by activators was assessed using an ELISA (antibody capture method) (E. Harlow, D. Lane. “Antibodies: A Laboratory Manual.” New York: Cold Spring Harbor Laboratory Press, 1988), wherein the collected mucus is bound directly to the ELISA plate. Mucus was detected using an antibody raised against monkey airway mucus (Lin et al. Am J Respir Cell Mol Biol 1:41, 1989).

CCCCCCCCCCCCCC(=O)NCC(=O)N[C@H](C(=O)N[C@@H](C)C(=O)N1CCC[C@H]1C(=O)N[C@@H](C)C(=O)N[C@@H](C)C(=O)N[C@@H](CCC(=O)O)C(=O)NCC(=O)N[C@@H](C)C(=O)NCC(=O)N[C@@H](C)C(=O)N[C@@H](CCC(=O)O)C(=O)N[C@H](C(=O)N[C@@H](CCCCN)C(=O)N[C@@H](CCCNC(=N)N)C(=O)N[C@@H](C)C(=O)N[C@@H](CO)C(=O)N[C@@H](C)C(=O)N[C@@H](CCC(=O)O)C(=O)N[C@@H](C)C(=O)N[C@@H](CCCCN)C(=O)N[C@@H](CCC(N)=O)C(=O)N[C@@H](C)C(=O)N[C@@H](Cc1ccccc1)C(=O)O)C(C)C)[C@@H](C)O [RNS peptide, reference compound] (Myristoyl-GTAPAAEGAGAEVKRASAEAKQAF-OH; C-terminus assumed)
Neutrophil Migration (% Inhibition), LTB4 (human neutrophils): 0%
Neutrophil Migration (% Inhibition), PAF (human neutrophils): 62.1%
Neutrophil Migration (% Inhibition), fMLP (human neutrophils): 0.7%

TNF-α
Mucin secretion level, % of control (NHBE cells; TNF-α 10 ng/ml 4 h, no secretagogue): 109%

CCCCCCCCCCCCCC(=O)NCC(=O)N[C@@H](C)C(=O)N[C@@H](CCC(N)=O)C(=O)N[C@@H](Cc1ccccc1)C(=O)N[C@@H](CO)C(=O)N[C@@H](CCCCN)C(=O)N[C@H](C(=O)N[C@@H](C)C(=O)N[C@@H](C)C(=O)N[C@@H](CCCCN)C(=O)NCC(=O)N[C@@H](CCC(=O)O)C(=O)O)[C@@H](C)O [SEQ ID NO: 13, N-myristoyl-GAQFSKTAAKGE] (Myristoyl-GAQFSKTAAKGE-OH; C-terminus assumed)
Neutrophil Migration (% Inhibition), LTB4 (human neutrophils): 82.7%
Neutrophil Migration (% Inhibition), PAF (human neutrophils): 85.7%
Neutrophil Migration (% Inhibition), fMLP (human neutrophils): 81.8%

CCCCCCCCCCCCCC(=O)NCC(=O)N[C@@H](C)C(=O)N[C@@H](CCC(N)=O)C(=O)N[C@@H](Cc1ccccc1)C(=O)N[C@@H](CO)C(=O)N[C@@H](CCCCN)C(=O)N[C@H](C(=O)N[C@@H](C)C(=O)N[C@@H](C)C(=O)N[C@@H](CCCCN)C(=O)O)[C@@H](C)O [SEQ ID NO: 15, N-myristoyl-GAQFSKTAAK] (Myristoyl-GAQFSKTAAK-OH; C-terminus assumed)
Neutrophil Migration (% Inhibition), LTB4 (human neutrophils): 85.5%
Neutrophil Migration (% Inhibition), PAF (human neutrophils): 87.2%
Neutrophil Migration (% Inhibition), fMLP (human neutrophils): 88.6%

CCCCCCCCCCCCCC(=O)O[C@@H]1[C@@H](C)[C@@]2(O)[C@@H](C=C(CO)C[C@]3(O)C(=O)C(C)=C[C@@H]23)[C@@H]2C(C)(C)[C@]12OC(C)=O [PMA, phorbol 12-myristate 13-acetate]
Mucin secretion as percent of control (NHBE cells; reagent 100 nM alone): 123% and 122%
Mucin secretion in response to PMA alone (NHBE cells; various concentrations and times, up to 1 μM for 2 h): did not induce significant mucin secretion

CCCCCCCCCCCCCC(=O)NCC(=O)N[C@@H](C)C(=O)N[C@@H](CCC(N)=O)C(=O)N[C@@H](Cc1ccccc1)C(=O)N[C@@H](CO)C(=O)N[C@@H](CCCCN)C(=O)N[C@H](C(=O)N[C@@H](C)C(=O)N[C@@H](C)C(=O)N[C@@H](CCCCN)C(=O)NCC(=O)N[C@@H](CCC(=O)O)C(=O)N[C@@H](C)C(=O)N[C@@H](C)C(=O)N[C@@H](C)C(=O)N[C@@H](CCC(=O)O)C(=O)N[C@@H](CCCNC(=N)N)C(=O)N1CCC[C@H]1C(=O)NCC(=O)N[C@@H](CCC(=O)O)C(=O)N[C@@H](C)C(=O)N[C@@H](C)C(=O)N[C@H](C(=O)N[C@@H](C)C(=O)O)C(C)C)[C@@H](C)O [MANS peptide] (Myristoyl-GAQFSKTAAKGEAAAERPGEAAVA-OH; C-terminus assumed)
Neutrophil Migration (% Inhibition), LTB4 (human neutrophils): 91.8%
Neutrophil Migration (% Inhibition), PAF (human neutrophils): 86.4%
Neutrophil Migration (% Inhibition), fMLP (human neutrophils): 90.0%

Nc1nc2c(nc(Br)n2[C@@H]2O[C@@H]3COP(=O)(O)O[C@H]3[C@H]2O)c(=O)[nH]1 [8-Br-cGMP]
Mucin secretion as percent of control (NHBE cells; reagent 1 μM alone): 109%
